According to patent publication US6737383B1, “Herbicidal oxadiazolidines” (priority 1999, dated 2004):

Experiments:
[1] = test system: bedstraw; experiment: Test B pre/postemergence bedstraw; assay type: in vivo, Galium aparine
In short: (§1)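 Herbicidal effect was estimated by eye on a ten-point control scale after plants spent twelve to sixteen days in a greenhouse following soil or foliar treatment. Foliar sprays targeted plants at one to four leaves; all doses were formulated in a non-phytotoxic solvent with surfactant.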

[2] = test system: blackgrass; experiment: Test B pre/postemergence blackgrass; assay type: in vivo, Alopecurus myosuroides
In short: as §1

[3] = test system: surinam grass; experiment: Test B pre/postemergence surinam grass; assay type: in vivo, Brachiaria decumbens
In short: as §1

[4] = test system: corn; experiment: Test B pre/postemergence corn; assay type: in vivo, Zea mays
In short: as §1

[5] = test system: crabgrass; experiment: Test B pre/postemergence crabgrass; assay type: in vivo, Digitaria sanguinalis
In short: as §1

[6] = test system: pigweed; experiment: Test B pre/postemergence pigweed; assay type: in vivo, Amaranthus retroflexus
In short: as §1

[7] = test system: rape; experiment: Test B pre/postemergence rape; assay type: in vivo, Brassica napus
In short: as §1

[8] = test system: soybean; experiment: Test B pre/postemergence soybean; assay type: in vivo, Glycine max
In short: as §1

[9] = test system: sugar beet; experiment: Test B pre/postemergence sugar beet; assay type: in vivo, Beta vulgaris; settings: for Plant response rating, Sugarbeets: Rate 250 g/ha
In short: as §1

[10] = test system: velvetleaf; experiment: Test B pre/postemergence velvetleaf; assay type: in vivo, Abutilon theophrasti; settings: for Plant response rating, Velvetleaf: Rate 250 g/ha
In short: as §1

[11] = test system: wheat; experiment: Test B pre/postemergence wheat; assay type: in vivo, Triticum aestivum; settings: for Plant response rating, Wheat: Rate 250 g/ha
In short: as §1

[12] = test system: wild oat; experiment: Test B pre/postemergence wild oat; assay type: in vivo, Avena fatua; settings: for Plant response rating, Wild oats: Rate 250 g/ha
In short: as §1

[13] = test system: purple nutsedge; experiment: Test B pre/postemergence purple nutsedge; assay type: in vivo, Cyperus rotundus
In short: as §1

[14] = test system: rice; experiment: Test B flood test rice; assay type: in vivo, Oryza sativa
In short: (§2)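 Read-out is a visual response score from 0 (no effect) to 10 (complete control), assigned by comparison with untreated controls. Treatment was applied at the 2-leaf stage, and plants stayed in the greenhouse for twelve to sixteen days before scoring.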

[15] = test system: smallflower flatsedge; experiment: Test B flood test smallflower flatsedge; assay type: in vivo, Cyperus difformis
In short: as §2

[16] = test system: duck salad; experiment: Test B flood test duck salad; assay type: in vivo, Heteranthera limosa
In short: as §2

[17] = Preemergence, Rate 62 g/ha, scale 0 to 10 (0 no effect, 10 complete control)
[18] = Preemergence, Rate 125 g/ha, scale 0 to 10 (0 no effect, 10 complete control)
[19] = Preemergence, Rate 250 g/ha, scale of 0 to 10 where 0 is no effect and 10 is complete control
[20] = Preemergence, Rate 500 g/ha, scale 0 to 10 (0 no effect, 10 complete control)
[21] = Rate 500 g/ha, Postemergence, scale 0 to 10, 0 no effect, 10 complete control
[22] = Postemergence, Rate 125 g/ha, scale of 0 to 10 where 0 is no effect and 10 is complete control
[23] = Postemergence, Rate 250 g/ha, scale 0 to 10, 0 no effect, 10 complete control
[24] = Rate 62 g/ha, Postemergence, scale of 0 to 10 where 0 is no effect and 10 is complete control
[25] = Rate 250 g/ha, Postemergence, scale 0 to 10, 0 is no effect, 10 is complete control
[26] = Preemergence, Rate 125 g/ha, 0 is no effect, 10 is complete control
[27] = Preemergence, scale of 0 to 10 where 0 is no effect and 10 is complete control
[28] = Postemergence, scale 0 to 10, 0 is no effect, 10 is complete control
[29] = Postemergence (flood test species), Rate 125 g/ha, scale of 0 to 10 where 0 is no effect and 10 is complete control
[30] = Rate 62 g/ha, Postemergence section, flood test species, scale of 0 to 10 where 0 is no effect and 10 is complete control
[31] = Rate 250 g/ha, Postemergence (flood test), scale 0 to 10, 0 is no effect, 10 is complete control
[32] = Rate 500 g/ha, listed under Postemergence (flood test species), scale 0 to 10, 0 no effect, 10 complete control

Cc1nn(C)c(C)c1-n1c(=O)on(C(=O)N(c2ccccc2)C(C)C)c1=O [Compound 120]
7: Plant response rating, Blackgrass [2, 19] | B. signalgrass plant response rating [3, 23] | Crabgrass plant response rating [5, 22] | Redroot pigweed plant response rating [6, 17] | Sugarbeets plant response rating [9, 20]
6: Blackgrass plant response rating [2, 23] | Plant response rating, B. signalgrass [3, 19] | Crabgrass plant response rating [5, 17] | Plant response rating, Crabgrass [5, 18] | Soybean plant response rating [8, 21] | Velvetleaf plant response rating [10, 21] | Wheat plant response rating [11, 20] | Plant response rating, Wild oats [12, 27]
4: Blackgrass plant response rating [2, 22] | B. signalgrass plant response rating ([3]; Rate 125 g/ha, Postemergence, scale 0 to 10, 0 no effect, 10 complete control) | Corn plant response rating [4, 21] | Plant response rating, Soybean [8, 25] | Plant response rating, Sugarbeets [9, 27] | Wheat plant response rating [11, 21]
9: Crabgrass plant response rating [5, 23] | Plant response rating, Crabgrass [5, 19] | Crabgrass plant response rating [5, 20] | Crabgrass plant response rating [5, 21]
3: Plant response rating, Blackgrass [2, 18] | Plant response rating, B. signalgrass [3, 18] | Redroot pigweed plant response rating [6, 21] | Rape plant response rating [7, 20] | Soybean plant response rating [8, 22] | Velvetleaf plant response rating [10, 20] | Rice plant response rating [14, 32]
8: Blackgrass plant response rating [2, 20] | Blackgrass plant response rating [2, 21] | B. signalgrass plant response rating [3, 20] | B. signalgrass plant response rating ([3]; Rate 500 g/ha, Postemergence, scale of 0 to 10 where 0 is no effect and 10 is complete control) | Plant response rating, Redroot pigweed [6, 18] | Plant response rating, Redroot pigweed [6, 19] | Redroot pigweed plant response rating [6, 20] | Wild oats plant response rating [12, 20]
0: Bedstraw plant response rating [1, 17] | Plant response rating, Bedstraw [1, 18] | Plant response rating, Bedstraw [1, 19] | Bedstraw plant response rating [1, 20] | Blackgrass plant response rating [2, 17] | Blackgrass plant response rating [2, 24] | B. signalgrass plant response rating ([3]; Postemergence, Rate 62 g/ha, scale 0 to 10, 0 is no effect, 10 is complete control) | B. signalgrass plant response rating [3, 17] | Corn plant response rating [4, 22] | Corn plant response rating [4, 17] | Plant response rating, Corn [4, 18] | Plant response rating, Corn [4, 19] | Corn plant response rating [4, 20] | Corn plant response rating [4, 24] | Redroot pigweed plant response rating [6, 22] | Redroot pigweed plant response rating [6, 24] | Plant response rating, Redroot pigweed [6, 25] | Rape plant response rating [7, 22] | Rape plant response rating [7, 23] | Rape plant response rating [7, 17] | Plant response rating, Rape [7, 18] | Plant response rating, Rape [7, 19] | Rape plant response rating [7, 24] | Rape plant response rating [7, 21] | Soybean plant response rating [8, 17] | Plant response rating, Soybean [8, 18] | Plant response rating, Soybean [8, 19] | Soybean plant response rating [8, 20] | Sugarbeets plant response rating [9, 22] | Sugarbeets plant response rating [9, 17] | Sugarbeets plant response rating [9, 24] | Plant response rating, Sugarbeets [9, 28] | Sugarbeets plant response rating [9, 21] | Velvetleaf plant response rating [10, 22] | Velvetleaf plant response rating [10, 17] | Velvetleaf plant response rating (0 to 10 scale) [10, 26] | Plant response rating, Velvetleaf [10, 27] | Velvetleaf plant response rating [10, 24] | Wheat plant response rating [11, 22] | Wheat plant response rating [11, 17] | Wheat plant response rating (0 to 10 scale) [11, 26] | Wheat plant response rating [11, 24] | Plant response rating, Wheat [11, 28] | Wild oats plant response rating [12, 22] | Wild oats plant response rating [12, 17] | Wild oats plant response rating [12, 24] | Plant response rating, Wild oats [12, 28] | Nutsedge plant response rating [13, 22] | Nutsedge plant response rating [13, 23] | Nutsedge plant response rating [13, 17] | Plant response rating, Nutsedge [13, 18] | Plant response rating, Nutsedge [13, 19] | Nutsedge plant response rating [13, 20] | Nutsedge plant response rating [13, 24] | Rice plant response rating [14, 29] | Rice plant response rating [14, 30] | S. Flatsedge plant response rating [15, 29] | S. Flatsedge plant response rating [15, 30] | Plant response rating, S. Flatsedge [15, 31] | S. Flatsedge plant response rating [15, 32] | Ducksalad plant response rating [16, 29] | Ducksalad plant response rating [16, 30] | Ducksalad plant response rating [16, 32] | Ducksalad plant response rating ([16]; flood test, listed under Postemergence, Rate 250 g/ha, scale 0 to 10, 0 no effect, 10 complete control)
5: Crabgrass plant response rating [5, 24]
2: Bedstraw plant response rating [1, 21] | Corn plant response rating [4, 23] | Soybean plant response rating [8, 24] | Sugarbeets plant response rating (0 to 10 scale) [9, 26] | Plant response rating, Velvetleaf [10, 28] | Plant response rating, Wheat [11, 27] | Wild oats plant response rating (0 to 10 scale) [12, 26] | Wild oats plant response rating [12, 21] | Plant response rating, Rice [14, 31]
